# Reference: patent publication US10934297B2, “5-heteroaryl substituted indazole-3-carboxamides and preparation and use thereof” (Samumed, LLC, priority 2018, dated 2021)
# Experiments:
# [1] = tested on: Wnt activity (Sp5-Luc reporter in SW480 cells); test: Screening assay for Wnt activity: Sp5-Luc reporter gene assay in SW480 colon carcinoma cells; format: cell-based, human; details: Homo sapiens, 36 to 48 hours
# Text: The screening assay for Wnt activity is described as follows. Reporter cell lines can be generated by stably transducing cancer cell lines (e.g., colon cancer) or primary cells (e.g., IEC-6 intestinal cells) with a lentiviral construct that includes a Wnt-responsive promoter driving expression of the firefly luciferase gene.
# SW480 colon carcinoma cells were transduced with a lentiviral vector expressing luciferase with a human Sp5 promoter consisting of a sequence of eight TCF/LEF binding sites. SW480 cells stably expressing the Sp5-Luc reporter gene and a hygromycin resistance gene were selected by treatment with 150 μg/mL of hygromycin for 7 days. These stably transduced SW480 cells were expanded in cell culture and used for all further screening activities. […] For Sp5-Luc reporter gene assays, the cells were plated at 4,000 cells/well in 384-well plates with a DMEM medium containing 1% fetal bovine serum, and 1% Penicillin-Streptomycin and incubated for 36 to 48 hours at 37° C. and 5% CO2. Following incubation, 15 μl of BriteLite Plus luminescence reagent (Perkin Elmer) was added to each well of the 384-well assay plates. The plates were placed on an orbital shaker for 2 min and then luminescence was quantified using the Envision (Perkin Elmer) plate reader. Readings were normalized to DMSO only treated cells, and normalized activities were utilized for EC50 calculations using the dose-response log (inhibitor) vs. response-variable slope (four parameters) nonlinear regression feature available in GraphPad Prism 5.0 (or Dotmatics).
# [2] = tested on: SW480 colon carcinoma cells; test: Cell viability assay (CellTiter-Glo) in SW480 colon carcinoma cells; format: cell-based, human; details: Homo sapiens, 96 h, four days
# Description: Representative compounds were screened using the assay procedure to assess the effect on cell viability as described below.
# SW480 colon carcinoma cells were transduced with a lentiviral vector expressing luciferase with a human Sp5 promoter consisting of a sequence of eight TCF/LEF binding sites. SW480 cells stably expressing the Sp5-Luc reporter gene and a hygromycin resistance gene were selected by treatment with 150 μg/mL of hygromycin for 7 days. These stably transduced SW480 cells were expanded in cell culture and used for all further screening activities.
# For the Cell Viability Assays, the cells were plated at 2,000 cells/well in 384-well plates with a DMEM medium containing 1% fetal bovine serum, and 1% Penicillin-Streptomycin and incubated for […] at 37° C. and 5% CO2. Eight replicates of DMSO-treated cells served as controls and cells treated with compound were performed in duplicate.
# After incubation, 10 μL of CellTiter-Glo (Promega) was added to each well allowed to incubate for approximately 12 minutes. This reagent “results in cell lysis and generation of a luminescent signal proportional to the amount of ATP present. The amount of ATP is directly proportional to the number of cells present in culture, in agreement with previous reports. The CellTiter-Glo® Assay generates a “glow-type” luminescent signal, produced by the luciferase reaction (Promega.com)”.
# DYRK1A kinase = DYRK1A kinase (Homo sapiens (Human), UniProt Q13627); test: DYRK1A kinase assay (Ser/Thr 18 peptide Z-lyte FRET); format: biochemical; details: read-out: EC50 (method: IC50)
# Description: Representative compounds were screened using the assay procedure for DYRK1A kinase activity as described below.
# This is a non-radioactive assay using fluorescence resonance energy transfer (FRET) between coumarin and fluorescein to detect kinase activity which is represented as a ratio of coumarin emission/fluorescein emission.
# The mixture was allowed to incubate with the representative compounds for one hour at room temperature. All reactions were performed in duplicate. Unphosphorylated (“0% Control”) and phosphorylated (“100% control”) forms of Ser/Thr 18 served as control reactions. Additionally, an 11-point dose-response curve of Staurosporine (1 uM top) was run to serve as a positive compound control.
# After incubation, Development Reagent A was diluted in Development Buffer then added to the reaction and allowed to further incubate for one hour at room temperature.
# IL-6 = IL-6 inhibition in LPS-stimulated human peripheral blood mononuclear cells (HTRF); format: cell-based; details: Homo sapiens, PBMC; for EC50: huPBMCs, LPS 50 ng/mL, 22 hours, IL-6 HTRF; for inhibition at 10 µM: read-out: percent inhibition at 10 μM
# Description: Fresh Normal PB MNC (Catalog #PB001, AllCells, Alameda, Calif.) were shipped overnight at 4° C. and resuspended in Roswell Park Memorial Institute (RPMI) 1640 Medium, with GlutaMAX Supplement (Catalog #61870127, ThermoFisher Scientific, Waltham, Mass.) supplemented with 1% Penicillin-Streptomycin (Catalog #15140163. ThermoFisher Scientific, Waltham, Mass.) and 1% fetal bovine serum (FBS) (Catalog #16140089, ThermoFisher Scientific, Waltham, Mass.) assay media. Fresh normal human peripheral blood mononuclear cells (huPBMCs) were resuspended in 1% FBS-RPMI assay media with 1% Penicillin-Streptomycin 1% to a cell concentration of 1×10e6 cells/mL. […] 50 ng/mL of Lipopolysaccharides from Escherichia coli 0111:B4 (Catalog #L5293-2ML, Sigma-Aldrich, St. Louis, Mo.) was added after 2 hours and cells were incubated for another 22 hours at 37° C.-5% CO2. After 22 hour incubation, a mixture of anti-IL6 XL665 and anti-IL-6 Cryptate diluted in reconstitution buffer (Catalog #62IL6PEC, Cisbio Inc., Bedford, Mass.) was added to each well. Following incubation for 3 hours at room temperature, Homogeneous Time-Resolved Fluorescence (HTRF) was measured using the Envision (Perkin Elmer, Shelton, Conn.) at 665 nm and […]. The ratio of fluorescence at 665 nm to 620 nm was used as a readout for IL-6 quantification. All samples were processed in duplicate. Readings were normalized to DMSO treated cells and normalized activities were utilized for EC50 calculations.
# GSK3β kinase = GSK3β kinase (Homo sapiens (Human), UniProt P49841); test: GSK3β kinase assay (Ser/Thr 09 peptide Z-lyte FRET); format: biochemical; details: read-out: EC50 (method: IC50)
# GSK3β kinase, sequence (P49841 whole entry): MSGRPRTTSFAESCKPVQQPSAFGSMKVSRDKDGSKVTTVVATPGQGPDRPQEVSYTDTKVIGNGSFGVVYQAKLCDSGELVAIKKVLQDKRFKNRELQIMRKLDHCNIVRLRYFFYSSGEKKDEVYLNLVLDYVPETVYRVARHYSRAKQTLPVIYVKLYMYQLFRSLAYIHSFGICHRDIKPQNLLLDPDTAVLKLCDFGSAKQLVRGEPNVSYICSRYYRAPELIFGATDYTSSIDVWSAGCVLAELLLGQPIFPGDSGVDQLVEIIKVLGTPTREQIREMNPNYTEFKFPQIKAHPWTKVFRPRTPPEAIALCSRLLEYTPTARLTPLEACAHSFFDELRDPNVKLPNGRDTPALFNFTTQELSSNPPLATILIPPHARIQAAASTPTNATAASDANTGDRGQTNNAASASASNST
# Description: Representative compounds were screened using the assay procedure for GSK3β kinase activity as described below.
# This is a non-radioactive assay using fluorescence resonance energy transfer (FRET) between coumarin and fluorescein to detect kinase activity which is represented as ratio of coumarin emission/fluorescein emission.
# The mixture is allowed to incubate with the representative compounds for one hour at room temperature. All reactions were performed in duplicate. Unphosphorylated (“0% Control”) and phosphorylated (“100% control”) forms of Ser/Thr 18 serve as control reactions.
# After incubation, diluted Development Buffer is added to the reaction and allowed to further incubate for one hour at room temperature.
# Dose-response curves are generated and inhibitory concentration (IC50) values are calculated using non-linear regression curve fit in the Dotmatics' Studies Software (Bishops Stortford, UK).
# [3] = tested on: primary human fibroblasts derived from IPF patients (LL29 cells); test: Inhibition of the fibrotic process: αSMA staining in TGF-β1 treated LL29 fibroblasts; format: cell-based; details: Homo sapiens, Fibroblast, 96 h; LL29 cells, TGF-β1 20 ng/mL, 4 days, % αSMA positive cells
# Description: Representative compounds were screened using primary human fibroblasts (derived from IPF patients) treated with TGF-β1 to determine their ability to inhibit the fibrotic process.
# LL29 cells were plated at 1,500 cells/well in 70 μL/well F12 medium supplemented with 1% Fetal Bovine Serum. […] Wells treated with TGF-β1 and containing DMSO were used as positive control, and cells with only DMSO were negative control. […] Following incubation for 4 days, SYTOX green nucleic acid stain (Life Technologies [Thermo Fisher Scientific]) was added to the wells at a final concentration of 1 μM and incubated at room temperature for 30 min.
Structure (SMILES),EC50 [1],EC50 [2],IC50 (DYRK1A kinase),EC50 (IL-6),IC50 (GSK3β kinase),EC50 [3],inhibition at 10 µM (IL-6)
"CC(C)NC(=O)c1n[nH]c2ccc(-c3cnn(C4CCNCC4)c3)cc12 [Compound 7, N-Isopropyl-5-(1-(piperidin-4-yl)-1H-pyrazol-4-yl)-1H-indazole-3-carboxamide]",2600 nM,5600 nM,55 nM,2010 nM,255 nM,> 10000 nM,–
"O=C(Nc1ccc(OC(F)F)nc1)c1n[nH]c2ccc(-c3cnn(CCN4CCOCC4)c3)cc12 [Compound 90, N-(6-(Difluoromethoxy)pyridin-3-yl)-5-(1-(2-morpholinoethyl)-1H-pyrazol-4-yl)-1H-indazole-3-carboxamide]",2130 nM,7390 nM,329 nM,> 10000 nM,403 nM,> 10000 nM,37%
"Cn1cc(-c2cc(Cl)c3[nH]nc(C(=O)NC4CCN(CC(C)(C)F)CC4)c3c2)cn1 [Compound 38, 7-Chloro-N-(1-(2-fluoro-2-methylpropyl)piperidin-4-yl)-5-(1-methyl-1H-pyrazol-4-yl)-1H-indazole-3-carboxamide]",> 10000 nM,> 10000 nM,> 10000 nM,> 10000 nM,> 10000 nM,> 10000 nM,8.8%
"CC(C)CN1CC[C@H](NC(=O)c2n[nH]c3ccc(-c4cnn(C)c4)cc23)[C@@H](F)C1 [Compound 33, N-((3 S,4S)-3-Fluoro-1-isobutylpiperidin-4-yl)-5-(1-methyl-1H-pyrazol-4-yl)-1H-indazole-3-carboxamide]",267 nM,> 10000 nM,24 nM,3150 nM,36 nM,43 nM,–
"O=C(Nc1ccc(OC(F)F)cc1)c1n[nH]c2cc(F)c(-c3cnn(C4CCNCC4)c3)cc12 [Compound 56, N-(4-(Difluoromethoxy)phenyl)-6-fluoro-5-(1-(piperidin-4-yl)-1H-pyrazol-4-yl)-1H-indazole-3-carboxamide]",376 nM,201 nM,27 nM,2150 nM,330 nM,1530 nM,–
"O=C(Nc1ccc(F)cc1)c1n[nH]c2cc(F)c(-c3cnn(C4CCNCC4)c3)cc12 [Compound 49, 6-Fluoro-N-(4-fluorophenyl)-5-(1-(piperidin-4-yl)-1H-pyrazol-4-yl)-1H-indazole-3-carboxamide]",256 nM,208 nM,15 nM,3730 nM,187 nM,1010 nM,–
"CC(C)CNC(=O)c1n[nH]c2ccc(-c3cn[nH]c3)cc12 [Compound 1, N-Isobutyl-5-(1H-pyrazol-4-yl)-1H-indazole-3-carboxamide]",358 nM,2580 nM,30 nM,1170 nM,28 nM,160 nM,–
"C[C@@H](NC(=O)c1n[nH]c2ccc(-c3cnn(C)c3)cc12)C(F)(F)F [Compound 3, (R)-5-(1-Methyl-1H-pyrazol-4-yl)-N-(1,1,1-trifluoropropan-2-yl)-1H-indazole-3-carboxamide]",> 10000 nM,8950 nM,134 nM,9070 nM,106 nM,2580 nM,–
"Cc1noc(C)c1-c1ccc2[nH]nc(C(=O)NC3CCN(CC(C)(C)F)CC3)c2c1 [Compound 43, 5-(3,5-Dimethylisoxazol-4-yl)-N-(1-(2-fluoro-2-methylpropyl)piperidin-4-yl)-1H-indazole-3-carboxamide]",> 10000 nM,> 10000 nM,67 nM,9150 nM,1060 nM,2170 nM,–
"Cn1cc(-c2ccc3[nH]nc(C(=O)NCC4CCC(F)(F)CC4)c3c2)cn1 [Compound 8, N-((4,4-Difluorocyclohexyl)methyl)-5-(1-methyl-1H-pyrazol-4-yl)-1H-indazole-3-carboxamide]",565 nM,511 nM,31 nM,3360 nM,22 nM,146 nM,–
"O=C(Nc1ccc(F)cc1)c1n[nH]c2ccc(-c3cnn(C4CC4)c3)cc12 [Compound 46, 5-(1-Cyclopropyl-1H-pyrazol-4-yl)-N-(4-fluorophenyl)-1H-indazole-3-carboxamide]",1460 nM,4500 nM,4450 nM,> 10000 nM,704 nM,543 nM,48.3%
"C[C@H](NC(=O)c1n[nH]c2ccc(-c3cnn(C)c3)cc12)C(F)(F)F [Compound 4, (S)-5-(1-Methyl-1H-pyrazol-4-yl)-N-(1,1,1-trifluoropropan-2-yl)-1H-indazole-3-carboxamide]",3840 nM,2550 nM,26 nM,2890 nM,24 nM,171 nM,–
"O=C(Nc1ccc(OC(F)F)cc1)c1n[nH]c2ccc(-c3cnn(CC4CCNCC4)c3)cc12 [Compound 63, N-(4-(Difluoromethoxy)phenyl)-5-(1-(piperidin-4-ylmethyl)-1H-pyrazol-4-yl)-1H-indazole-3-carboxamide]",9440 nM,768 nM,767 nM,> 10000 nM,2320 nM,2030 nM,6.2%
